Molecules are shown by their SMILES.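 Interpolation was linear, between the two tested concentrations surrounding the appropriate level; five concentrations were tested over 48 hours in 96-well plates. At the TGI there is no net growth.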 Bounds are passed on as bounds.

The record followed here is PubChem BioAssay (NCI).

Holding throughout (assay): NCI-60 cell line screen, 48 h
The subject of experiment [1] is SK-MEL-5 melanoma.
Experiment [2] relates to HCT-15 colon.
For experiment [3], the system named is IGROV1 ovarian.
Experiment [4] concerns COLO 205 colon.
Experiment [5] relates to KM12 colon.
Experiment [6] relates to MOLT-4 leukemia.
Experiment [7] deals with UACC-257 melanoma.
For experiment [8], the system named is A498 renal.
The subject of experiment [9] is NCI-H460 lung.
Experiment [10] has as its system SN12C renal.
In experiment [11] the test system is SK-MEL-28 melanoma.
The subject of experiment [12] is HOP-92 NSCLC.
Experiment [13] deals with SK-MEL-2 melanoma.
Experiment [14] deals with UO-31 renal.
The test system of experiment [15] is OVCAR-4 ovarian.
For experiment [16], the system named is NCI-H226 lung.
Experiment [17] has as its system UACC-62 melanoma.
For experiment [18], the system named is OVCAR-3 ovarian.

On to `COc1ccc(/C=C2\SC(c3ccc(OC)cc3)N(NC(=O)Cc3ccccc3)C2=O)cc1` (configuration not stated), for which the TGI in experiment [1], in [2], in experiment [3], in experiment [4], in experiment [5] and in [6] was greater than 100 µM each time. The TGI in [7], in experiment [8], in experiment [9], in [10], in experiment [11] and in [12] was greater than 100 µM throughout. In addition, the TGI in [13], in experiment [14], in experiment [15], in [16] and in [17] was greater than 100 µM in each case.

With `COc1cc([C@@H]2c3cc4c(cc3[C@@H](NCc3ccccc3)C3COC(=O)[C@@H]32)OCO4)cc(OC)c1O` (some centres not stated), the TGI is 35.8 µM in [1]; 33.5 µM in [2]; greater than 92.3 µM in [3]; greater than 89 µM in experiment [4]; 49.3 µM in experiment [5]; 13 µM in experiment [6]. For the same compound, the TGI is greater than 90.2 µM in experiment [7]; 42.5 µM in experiment [18]; 19.4 µM in experiment [8]; 15.8 µM in experiment [9]; 18.8 µM in [10]; greater than 100 µM in experiment [11]. In addition, the TGI in [12] was 37.9 µM; in experiment [13], 52.2 µM; in [14], 17.6 µM; in experiment [15], greater than 75.5 µM; in [16], 11.2 µM; in [17] it was 22.1 µM.

In the case of `COc1ccc2nc(NC(=O)C(=O)C(C(=O)c3ccccc3-c3ccccc3)C3OC(=O)c4ccccc43)sc2c1` (configuration not stated), the TGI in experiment [1] was 31.1 µM; in experiment [3], 71.7 µM; in [4], 39.6 µM; in experiment [5], 54.9 µM; in experiment [6], 89.5 µM; in [7], greater than 100 µM. Further, the TGI in experiment [18] amounted to 48.2 µM; in [8] it was 40.8 µM; in experiment [9], 50.2 µM; in [11], 51 µM; in experiment [12], 35.2 µM; in experiment [13] it was 28 µM. In addition, the results for the TGI in experiment [14], in experiment [16] and in [17] were 47.4 µM, 21.2 µM and 34.3 µM, respectively.

As for `Cc1ccc2c(c1)SC(c1cc3c(cc1Br)OCO3)S2` (configuration not stated), the TGI in [1], in experiment [2], in experiment [3], in experiment [4], in experiment [5] and in [6] was greater than 31.6 µM in each case. For the same compound, the TGI in [7], in experiment [18], in experiment [8], in experiment [9], in [10] and in [11] was greater than 31.6 µM throughout. Besides, the TGI in experiment [12], in [13], in experiment [14], in [15], in experiment [16] and in experiment [17] was greater than 31.6 µM throughout.

`CC(=O)OCC1OC(n2c(=O)n(-c3ccccc3)c(=O)c3cc(Br)cc(Br)c32)C(OC(C)=O)C(OC(C)=O)C1OC(C)=O` (configuration not stated): the TGI in experiment [1], in experiment [2], in experiment [3], in experiment [4], in experiment [5] and in experiment [6] was greater than 100 µM in each case. Also, the TGI in experiment [7], in experiment [18], in experiment [8], in [9], in experiment [10] and in experiment [11] was greater than 100 µM throughout. Also, the TGI is greater than 100 µM in [12]; greater than 100 µM in experiment [13]; greater than 100 µM in [14]; 61.5 µM in experiment [15]; greater than 100 µM in experiment [16]; greater than 100 µM in [17].

As to `O=C(CC(=O)Nc1ccccc1O)Nc1ccccc1O`, the TGI in experiment [1] was 22 µM; in experiment [2] it was 21.8 µM; in [3], greater than 100 µM; in experiment [4], 33.2 µM; in [5], greater than 100 µM; in experiment [6], greater than 100 µM. In addition, the TGI was 30 µM in experiment [7]; 46 µM in experiment [18]; greater than 100 µM in experiment [8]; 66.3 µM in [9]; 33.8 µM in experiment [10]; 27.4 µM in [11]. Also, the TGI in experiment [12] was greater than 100 µM; in [14], 27 µM; in experiment [15] it was greater than 100 µM; in experiment [16] it was greater than 100 µM; in [17] it was 10.9 µM.

With `Cc1nc2ccccc2c(=O)n1NC(=S)Nc1cccc(Cl)c1`, the TGI in experiment [1], in experiment [2], in [3], in [4], in experiment [5] and in [6] was greater than 100 µM each time. The TGI in experiment [7], in [8], in [9], in experiment [10], in [11] and in experiment [12] was greater than 100 µM throughout. For the same compound, the TGI in experiment [13], in [14], in experiment [15], in [16] and in experiment [17] was greater than 100 µM throughout.

Regarding `CC1=C(C(=O)CC(=O)C(=O)Nc2ccccc2)Sc2ccccc2N1`, the TGI in experiment [1], in [2], in experiment [3], in [4], in experiment [5] and in experiment [6] was greater than 100 µM in each case. For the same compound, the TGI in experiment [7], in experiment [18], in experiment [8], in [9], in experiment [10] and in experiment [11] was greater than 100 µM throughout. For the same compound, the TGI in experiment [12], in [13], in [14], in experiment [15], in [16] and in experiment [17] was greater than 100 µM each time.

In the case of `CCOC(=O)[C@H]1Nc2ccc(Cl)cc2[C@H]2OCC[C@@H]12`, the TGI in [1], in experiment [2], in experiment [3], in [4], in experiment [5] and in [6] was greater than 100 µM each time. The TGI in experiment [7], in experiment [18], in experiment [8], in experiment [9], in [10] and in experiment [11] was greater than 100 µM throughout. Besides, the TGI in experiment [13], in experiment [15], in [16] and in experiment [17] was greater than 100 µM throughout.

For `COc1cc(/C=C/c2ccc(OC(C)=O)cc2)cc(OC)c1OC`, the TGI in experiment [1] is 34.6 µM; in experiment [2], greater than 100 µM; in experiment [3] it was greater than 100 µM; in experiment [4] it was 67.2 µM; in [5] it was greater than 100 µM; in [6], 75.7 µM. The TGI in experiment [7] is greater than 100 µM; in [18], 68.2 µM; in experiment [8], 71.8 µM; in [9] it was 91.6 µM; in experiment [10], greater than 100 µM; in [11] it was greater than 100 µM. Moreover, the TGI was 80.2 µM in [12]; 56.1 µM in experiment [14]; greater than 100 µM in experiment [15]; greater than 100 µM in experiment [16]; 70.6 µM in experiment [17].

Consider `CC1(Br)C(=O)NC(=O)N(C2CC(N=[N+]=[N-])C(CO)O2)C1N=[N+]=[N-]` (configuration not stated), for which the TGI in experiment [1], in experiment [2], in [3], in [4], in experiment [5] and in experiment [6] was greater than 100 µM throughout. In addition, the TGI in experiment [7], in experiment [18], in experiment [8], in experiment [9], in experiment [10] and in experiment [11] was greater than 100 µM throughout. In addition, the TGI in experiment [12], in [13], in experiment [14], in experiment [15] and in experiment [17] was greater than 100 µM throughout.

On to `Cc1nc(-c2nc(C)c(C(=O)NN(C)C)s2)sc1C(=O)NN(C)C`, for which the TGI is greater than 100 µM in [1]; greater than 100 µM in [2]; greater than 100 µM in experiment [3]; 53.9 µM in experiment [4]; greater than 100 µM in experiment [5]; greater than 100 µM in experiment [6]. Also, the TGI in experiment [7], in experiment [18], in experiment [8], in experiment [9], in experiment [10] and in experiment [11] was greater than 100 µM throughout. The TGI in [12], in experiment [13], in [14], in experiment [15], in experiment [16] and in experiment [17] was greater than 100 µM each time.

On to `Cc1ccc(C2(O)CC(c3ccc([N+](=O)[O-])o3)=NN2C(=O)COc2ccccc2Cl)cc1` (configuration not stated), for which the TGI was 8.54 µM in [1]; 24.1 µM in experiment [2]; greater than 100 µM in [3]; 24.1 µM in [4]; greater than 100 µM in experiment [5]; 96.1 µM in [6]. The TGI in [7] is 53.6 µM; in experiment [18], 19.9 µM; in experiment [8], greater than 100 µM; in experiment [9] it was greater than 31.6 µM; in [10] it was greater than 49.1 µM; in experiment [11], 45 µM. Besides, the TGI in [12] is greater than 95.3 µM; in [13], 26.4 µM; in experiment [14], greater than 100 µM; in experiment [15], greater than 100 µM; in experiment [16], greater than 100 µM; in experiment [17], 24.5 µM.

With `CCCc1c(C(=O)OCC)[nH]c(-c2ccc(-c3[nH]c(C(=O)OCC)c(CCC)c3C(=O)OCC)o2)c1C(=O)OCC`, the TGI in experiment [1], in [2], in [3], in experiment [4], in [5] and in [6] was greater than 100 µM in each case. Further, the TGI in experiment [7], in [18], in experiment [8], in experiment [9], in experiment [10] and in [11] was greater than 100 µM each time. The TGI in experiment [12], in experiment [13], in experiment [14], in [15], in experiment [16] and in experiment [17] was greater than 100 µM in each case.

Take `COC(=O)c1c2c(c(-c3ccccc3)c3c1-c1nc(Cl)ccc1CC3)CCc1ccc(Cl)nc1-2`: the TGI in experiment [1], in experiment [2], in experiment [3], in experiment [4], in experiment [5] and in experiment [6] was greater than 100 µM throughout. In addition, the TGI in experiment [7], in experiment [18], in experiment [8], in experiment [9], in experiment [10] and in experiment [11] was greater than 100 µM in each case. The TGI in experiment [12], in [14], in experiment [15], in [16] and in experiment [17] was greater than 100 µM each time.

In the case of `COc1cc(C(=O)C/C(CCC(=O)Nc2ccc(Cl)cc2Cl)=N/NC(=O)C(N)=O)ccc1O`, the TGI in experiment [1], in [2], in experiment [3], in [4], in experiment [5] and in experiment [6] was greater than 100 µM each time. The TGI in [7], in [18], in [8], in experiment [9], in [10] and in experiment [11] was greater than 100 µM each time. Moreover, the TGI in experiment [12], in experiment [13], in experiment [14], in experiment [15], in experiment [16] and in experiment [17] was greater than 100 µM throughout.
